Source: patent publication US11174253B2, “Compound and pharmaceutical composition containing the same” (ALPHALA CO., LTD., priority 2017, dated 2021)

Test system: hepatocellular carcinoma cell line Hep3B
Assay: Growth inhibition of Hep3B cells, 48 hr treatment, Hoechst 33342 nucleus count (GE InCell 2200)
Format: cell-based
Settings: Homo sapiens, Table 1, ratio of number of tumor cells treated with 10 μM compound to non-treated cells
Outline: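 Compound exposure lasted 48 hr at 37° C, 5% CO2. Surviving nuclei were counted after Hoechst 33342 staining, and survival was expressed as the treated/non-treated cell number ratio, including the ratio at 10 μM compound.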

First: CN(C)c1ccc(-c2nnc(NC(=O)Cc3ccc4nc(N)sc4c3)s2)cc1 [Compound 1-9, 2-(2-aminobenzo[d]thiazol-6-yl)-N-(5-(4-(dimethylamino)phenyl)-1,3,4-thiadiazol-2-yl)acetamide]
Second: Nc1nc2ccc(CC(=O)Nc3nnc(-c4ccc(I)cc4)s3)cc2s1 [Compound 1-12, 2-(2-aminobenzo[d]thiazol-6-yl)-N-(5-(4-iodophenyl)-1,3,4-thiadiazol-2-yl)acetamide]
The viability at 10 µM of the first is lower: 60% for the first, 67% for the second.

`CC(C)Oc1ccc(-c2nnc(NC(=O)Cc3ccc4nc(N)sc4c3)s2)cc1` [Compound 1-14, 2-(2-aminobenzo[d]thiazol-6-yl)-N-(5-(4-isopropoxyphenyl)-1,3,4-thiadiazol-2-yl)acetamide] showed a viability at 10 µM of 71%.

Same assay, conditions: Homo sapiens, Table 2, ratio of number of tumor cells treated with 10 μM compound to non-treated cells

Molecule `Nc1nc2ccc(CC(=O)Nc3nnc(-c4ccccc4OC(F)(F)F)o3)cc2s1` [Compound 2-4, 2-(2-aminobenzo[d]thiazol-6-yl)-N-(5-(2-(trifluoromethoxy)phenyl)-1,3,4-oxadiazol-2-yl)acetamide] has a viability at 10 µM of 88%.

Same assay, conditions: Homo sapiens, Table 3, ratio of number of tumor cells treated with 10 μM compound to non-treated cells

Going from `CCOc1ccc(-c2nc(NC(=O)Cc3ccc4nc(N)sc4c3)sc2Cc2ccccc2)cc1` [Compound 3-14, 2-(2-aminobenzo[d]thiazol-6-yl)-N-(5-benzyl-4-(4-ethoxyphenyl)thiazol-2-yl)acetamide] to `COc1cccc(-c2nc(NC(=O)Cc3ccc4nc(N)sc4c3)sc2Br)c1` [Compound 3-8, 2-(2-aminobenzo[d]thiazol-6-yl)-N-(5-bromo-4-(3-methoxyphenyl)thiazol-2-yl)acetamide], the viability at 10 µM rises from 76% to 84%.

Work on `Cc1ccc(-c2nc(NC(=O)Cc3ccc4nc(N)sc4c3)sc2-c2cc(C(F)(F)F)cc(C(F)(F)F)c2)cc1` [Compound 3-7, 2-(2-aminobenzo[d]thiazol-6-yl)-N-(5-(3,5-bis(trifluoromethyl)phenyl)-4-(p-tolyl)thiazol-2-yl)acetamide] yielded a viability at 10 µM of 78%.

Same assay, conditions: Homo sapiens, Table 4, ratio of number of tumor cells treated with 10 μM compound to non-treated cells

With `CCOc1ccc(-c2ccc(NC(=O)Cc3ccc4nc(N)sc4c3)s2)cc1` [Compound 4-2, 2-(2-aminobenzo[d]thiazol-6-yl)-N-(5-(4-ethoxyphenyl)thiophen-2-yl)acetamide] the viability at 10 µM was 89%.

Same assay, conditions: Homo sapiens, Table 5, ratio of number of tumor cells treated with 10 μM compound to non-treated cells

Compared with `CCOc1ccc(-c2nc(NC(=O)c3ccc([N+](=O)[O-])s3)sc2Oc2ccccc2)cn1` [Compound 5-51, N-(4-(6-ethoxypyridin-3-yl)-5-phenoxythiazol-2-yl)-5-nitrothiophene-2-carboxamide], `COc1ccc(-c2nc(NC(=O)c3ccc([N+](=O)[O-])s3)sc2Oc2ccccc2)cc1` [Compound 5-34, N-(4-(4-methoxyphenyl)-5-phenoxythiazol-2-yl)-5-nitrothiophene-2-carboxamide] is higher in viability at 10 µM: 43% for the first, 54% for the second.

First: CCC(C)(C)c1ccc(Oc2sc(NC(=O)c3ccc([N+](=O)[O-])s3)nc2-c2ccc(C(C)(C)C)cc2)cc1 [Compound 5-101, N-(4-(4-(tert-butyl)phenyl)-5-(4-(tert-pentyl)phenoxy)thiazol-2-yl)-5-nitrothiophene-2-carboxamide]
Second: Cc1ccc(Oc2sc(NC(=O)c3ccc([N+](=O)[O-])s3)nc2-c2ccc(C(C)(C)C)cc2)cc1 [Compound 5-105, N-(4-(4-(tert-butyl)phenyl)-5-(p-tolyloxy)thiazol-2-yl)-5-nitrothiophene-2-carboxamide]
The viability at 10 µM of the first is higher: 48% for the first, 30% for the second.

Going from `NCCCCCOc1ccc(-c2nc(NC(=O)c3ccc([N+](=O)[O-])s3)sc2Oc2ccccc2)cc1` [Compound 5-92, N-(4-(4-((5-aminopentyl)oxy)phenyl)-5-phenoxythiazol-2-yl)-5-nitrothiophene-2-carboxamide] to `O=C(Nc1nc(-c2ccc(OC(F)(F)F)cc2)c(Oc2ccccc2)s1)c1ccc([N+](=O)[O-])s1` [Compound 5-84, 5-nitro-N-(5-phenoxy-4-(4-(trifluoromethoxy)phenyl)thiazol-2-yl)thiophene-2-carboxamide], the viability at 10 µM falls from 46% to 34%.

Compared with `COc1cc(-c2nc(NC(=O)c3ccc([N+](=O)[O-])s3)sc2Oc2ccccc2)cc(OC)c1OC` [Compound 5-61, 5-nitro-N-(5-phenoxy-4-(3,4,5-trimethoxyphenyl)thiazol-2-yl)thiophene-2-carboxamide], `CCOc1ccc(-c2nc(NC(=O)c3ccc([N+](=O)[O-])s3)sc2Oc2ccccc2)c(F)c1` [Compound 5-53, N-(4-(4-ethoxy-2-fluorophenyl)-5-phenoxythiazol-2-yl)-5-nitrothiophene-2-carboxamide] is lower in viability at 10 µM: 59% for the first, 41% for the second.

First: CCCCOc1ccc(-c2nc(NC(=O)c3ccc([N+](=O)[O-])s3)sc2Oc2ccc(Br)cc2)cc1 [Compound 5-86, N-(5-(4-bromophenoxy)-4-(4-butoxyphenyl)thiazol-2-yl)-5-nitrothiophene-2-carboxamide]
Second: CCCCOc1ccc(-c2nc(NC(=O)c3ccc([N+](=O)[O-])s3)sc2Oc2cc(C)c(Br)c(C)c2)cc1 [Compound 5-87, N-(5-(4-bromo-3,5-dimethylphenoxy)-4-(4-butoxyphenyl)thiazol-2-yl)-5-nitrothiophene-2-carboxamide]
The viability at 10 µM of the first is lower: 24% for the first, 36% for the second.

Compared with `CCCOc1ccc(-c2nc(NC(=O)c3ccc([N+](=O)[O-])s3)sc2Oc2ccccc2OCC)cc1` [Compound 5-21, N-(5-(2-ethoxyphenoxy)-4-(4-propoxyphenyl)thiazol-2-yl)-5-nitrothiophene-2-carboxamide], `CC(C)(C)c1ccc(Oc2sc(NC(=O)c3ccc([N+](=O)[O-])s3)nc2-c2ccc(F)cc2)cc1` [Compound 5-64, N-(5-(4-(tert-butyl)phenoxy)-4-(4-fluorophenyl)thiazol-2-yl)-5-nitrothiophene-2-carboxamide] is higher in viability at 10 µM: 28% for the first, 54% for the second.

Work on `Cc1cc(Oc2sc(NC(=O)c3ccc([N+](=O)[O-])s3)nc2-c2ccc(C(C)(C)C)cc2)cc(C)c1Br` [Compound 5-99, N-(5-(4-bromo-3,5-dimethylphenoxy)-4-(4-(tert-butyl)phenyl)thiazol-2-yl)-5-nitrothiophene-2-carboxamide] yielded a viability at 10 µM of 40%.

Same assay, conditions: Homo sapiens, Table 6, ratio of number of tumor cells treated with 10 μM compound to non-treated cells

First: CCOc1ccc(-c2nc(NC(=O)c3ccc([N+](=O)[O-])s3)sc2Cc2ccc(F)cc2)cc1 [Compound 6-35, N-(4-(4-ethoxyphenyl)-5-(4-fluorobenzyl)thiazol-2-yl)-5-nitrothiophene-2-carboxamide]
Second: Cc1ccc(-c2nc(NC(=O)c3ccc([N+](=O)[O-])s3)sc2-c2ccc(F)cc2)cc1 [Compound 6-6, N-(5-(4-fluorophenyl)-4-(p-tolyl)thiazol-2-yl)-5-nitrothiophene-2-carboxamide]
The viability at 10 µM of the first is lower: 47% for the first, 48% for the second.

First: CCCOc1ccc(-c2nc(NC(=O)c3ccc([N+](=O)[O-])s3)sc2C(=O)N2CCN(C)CC2)cc1 [Compound 6-30, N-(5-(4-methylpiperazine-1-carbonyl)-4-(4-propoxyphenyl)thiazol-2-yl)-5-nitrothiophene-2-carboxamide]
Second: CN1CCN(C(=O)c2sc(NC(=O)c3ccc([N+](=O)[O-])s3)nc2-c2ccc(C(C)(C)C)cc2)CC1 [Compound 6-43, N-(4-(4-(tert-butyl)phenyl)-5-(4-methylpiperazine-1-carbonyl)thiazol-2-yl)-5-nitrothiophene-2-carboxamide]
The viability at 10 µM of the first is higher: 58% for the first, 38% for the second.

First: COc1cccc(-c2nc(NC(=O)c3ccc([N+](=O)[O-])s3)sc2Br)c1 [Compound 6-14, N-(5-bromo-4-(3-methoxyphenyl)thiazol-2-yl)-5-nitrothiophene-2-carboxamide]
Second: CCOc1ccc(-c2nc(NC(=O)c3ccc([N+](=O)[O-])s3)sc2N(C)c2ccccc2)cc1 [Compound 6-28, N-(4-(4-ethoxyphenyl)-5-(methyl (phenyl)amino)thiazol-2-yl)-5-nitrothiophene-2-carboxamide]
The viability at 10 µM of the first is higher: 83% for the first, 31% for the second.

First: CC(C)(C)c1ccc(-c2nc(NC(=O)c3ccc([N+](=O)[O-])s3)sc2-c2ccccc2F)cc1 [Compound 6-48, N-(4-(4-(tert-butyl)phenyl)-5-(2-fluorophenyl)thiazol-2-yl)-5-nitrothiophene-2-carboxamide]
Second: CC(C)(C)c1ccc(-c2nc(NC(=O)c3ccc([N+](=O)[O-])s3)sc2-c2c(F)cc(F)cc2F)cc1 [Compound 6-52, N-(4-(4-(tert-butyl)phenyl)-5-(2,4,6-trifluorophenyl)thiazol-2-yl)-5-nitrothiophene-2-carboxamide]
The viability at 10 µM of the first is higher: 45% for the first, 37% for the second.
